What was measured:
[1] = tested on: Bone marrow derived mast cells (BMMC); assay: Cell death assay (Trypan blue exclusion) in BMMC; assay type: cell-based; conditions: for cell death: 24 hours
Procedure: Cytotoxicity assays were performed as described in Materials and Methods. In Figures 1A to 1C, BMMCs were incubated with either SLF (500ng/ml in all cases) (circles) or IL-3 (25% WEHI-3 conditioned medium in all cases) (squares) with the indicated amounts of ketotifen (Figure 1A), econazole (Figure 1B) or Ni^2+ (Figure 1C). In Figure 1D, BMMCs were incubated with IL-3, and the indicated amounts of SLF. Plotted circles also included 2.5mM Ni^2+ and plotted squares included no Ni^2+. In Figure 1E, BMMCs were coated with IgE anti-DNP monoclonal SPE-7, then incubated with IL-3 plus the indicated amounts of DNP-HSA (Ag), with 5µM econazole (circles) or without econazole (squares). In Figure 1F, BMMCs were incubated with IL-3 plus the indicated amounts of Substance P, with 5µM econazole (circles) or without econazole (squares). In all cases, the proportion of dead cells was determined after 24 hours in culture by counting cells that could or could not exclude Trypan blue. Error bars represent the standard error determined from triplicate measurements.
(§1) Cells. Bone marrow derived mast cells (BMMC) were generated as described previously (Berger et al., 1994). They were cultured in OPTI-MEM (Gibco, Burlington, ON) supplemented with 10% heat-inactivated FBS and 2% WEHI-3 supernatant as a source of IL-3. 32D-kit cells (gift from Dr. Mark Minden, Ontario Cancer Institute) are an IL-3-dependent myelomonocytic cell line expressing c-kit (Hu et al., 1995). 32D-kit cells were grown in RPMI (Gibco) supplemented with 10% heat-inactivated FBS, 2% WEHI-3 supematant, and 1 mg/ml G418 (Gibco). The p815 cell line is a murine mastocytoma cell line. P815 cells were grown in RPMI supplemented with 10% heat-inactivated FBS. Bcl-2 gp+e NIH 3T3 packaging cells were grown in Dulbecco's modified Eagle's medium (DMEM - Gibco) and supplemented with 10% FBS and 2 µg/ml puromycin (Sigma, St. Louis, Mo). All cell cultures also contained 55µM β-mercaptoethanol and antibiotics (both Sigma). SK-BR3, MDA-MB231 and MCF-7 cells were obtained from ATCC. SK-BR3 and MDA-MB231 cells were cultured in RPMI medium supplemented with 10% heat inactivated fetal bovine serum. MCF-7 cells were cultured in DMEM medium supplemented with 10% heat inactivated fetal bovine serum and 10 µg/ml human insulin (Sigma).
(§2) Cell death assays. 2.5 X 10^4 BMMCs, 32D-kit or P815 cells were placed in 96-well flat bottom plates in a volume of 0.1 ml RPMI containing 0.5% FBS. Cells were supplemented with either SLF, Substance P or IL3 plus Ca^2+ channel blocker. In the case of adding IgE, cells were incubated with 10 µg/ml SPE-7 for 45 minutes at 4°C followed by 3 washes with RPMI, 0.5% FBS before plating in 96 well plates and adding 100 ng/ml DNP-HSA. The proportion of dead cells was determined after 18 or 24 hours in culture by counting cells that could or could not exclude Trypan blue.

[2] = tested on: 32D-kit-Bcl-2 cells; assay: Cell death assay (Trypan blue exclusion) in Bcl-2 over-expressing 32D-kit cells; assay type: cell-based; conditions: SLF plus 2.5, 5 or 10µM econazole; 18 hours; Figure 7B
Procedure: Figures 6A and 6B show the effect of ionomycin on apoptosis induced by SLF and Ca^2+ influx blacker. In Figure 6A, 32D-kit cells were incubated for 18 hours with 5µM econazole and the indicated amounts of ionomycin in the presence of either SLF (circles) or IL-3 (squares). In Figure 6B, 32D-kit-Bcl-2 cells were incubated for 18 hours with 5µM econazole and the indicated amounts of ionomycin in the presence of either SLF (circles) or IL-3 (squares). The proportion of dead cells was determined by Trypan Blue exclusion.
In additional cultures, IL-3 alone or no factor was added and cell viability was similarly tested. The effect on cell viability of adding 25 or 250 µM YVAD-CHO was also evaluated in separate cultures in which no additional factors were added.
Generation of Bcl-2 over-expressing 32D-kit cells. gp + e bcl-2 retroviral producer cells were a gift from Dr. Y. Ben-David (Toronto) and contain an LXSN-based retroviral vector expressing genes for both puromycin resistance and murine bcl-2. For infection, a confluent layer of gp + e packaging cells were co-cultured with 32D-kit cells for 24 hours. Non-adherent 32D-kit cells were then removed, cultured for 48 hours and then selected for bcl-2 over-expressing cells in the presence of 2µg/ml puromycin.
as §2

[3] = tested on: BMMC; assay: Analysis of DNA content (propidium iodide, flow cytometry) in BMMC; assay type: cell-based; conditions: 24 hours
Procedure: Analysis of DNA content. 1.25 X 10^6 cells were incubated for 18 or 24 hours as described above. Cells were spun down and resuspended in Vindelov's reagent: 3.4mM Tris - pH 8, 75 µM Propidium Iodide (from Sigma), 0.1% NP-40, 700 u/l RNAse (Sigma) and 10 mM NaCl. Cells were then analysed by flow cytometry.

[4] = tested on: SK-BR3 cells; assay: Cell death (Trypan blue exclusion) in SK-BR3 breast cancer cells; assay type: cell-based, human; conditions: with or without 10ng/ml EGF; 18 hours; Figure 9A
Procedure: as §1

[5] = tested on: MDA-MB-231 cells; assay: Cell death in autocrine stimulated MDA-MB-231 breast cancer cells; assay type: cell-based, human; conditions: 20µM econazole; Figure 9B
Procedure: Bar 1: control; Bar 2: 20µM econazole; Bar 3: 20µM econazole and 10µM YVAD-CHO (ICE inhibitor); Bar 4: 20µM econazole and 100 µM YVAD-CHO; Bar 5: 20µM econazole and 0.1 nM ionomycin (calcium ionophore); Bar 6: 20µM econazole and 10 nM ionomycin; Bar 7: 20µM econazole and 1 µM ionomycin; Bar 8: 20µM econazole and 10 µM oleic acid (PLC activation inhibitor); and Bar 9: 20µM econazole and 100 µM oleic acid.
as §1
The MDA-MB-231 cell line is a highly anaplastic carcinoma of the breast. it too is tumorigenic in nude mice but expresses only low levels of erbB2. However it is FGF^R positive and is stimulated in an autocrine fashion by bFGF (el Yazidi et al., 1995). Experiments were carried out to determine the susceptibility of MDA-MB-231 cells to a Ca^2+ influx blocker and the influence of oleic acid, ionomycin, and YVAD-CHO on induction of cell death by the blocker. The results are summarized together in Figure 9B.

[6] = tested on: MCF-7 cells; assay: Cell death (Trypan blue exclusion) in MCF-7 cells; assay type: cell-based, human; conditions: with versus without 10ng/ml EGF; 18 hours; Figure 10
Procedure: 2.5 X 10^4 MCF-7 cells were incubated in the wells of a 96-well plate in 0.1ml DMEM plus 0.5% FBS with (circles) or without (squares) 10ng/ml EGF and with the concentrations of econazole indicated for 18 hours. The proportion of dead cells was evaluated by Trypan Blue exclusion after 18 hours in culture.
as §1, with “MCF-7 cells were cultured in DMEM medium supplemented with 10% heat inactivated fetal bovine serum and 10 µg/ml human insulin (Sigma).” left out

[7] = tested on: NS1/Ag4 myeloma cells; conditions: at 1µg/ml; cited from earlier work

## Clc1ccc(COC(Cn2ccnc2)c2ccc(Cl)cc2Cl)cc1 (centres unmarked) [econazole]
[1]; co-incubated with SLF (500ng/ml), Figures 1A-C
  cell death: converted to a death signal
[1]; econazole alone, without antigenic stimulation
  cell viability: no effect on cell viability
[1]; stimulated with IgE plus antigen (DNP-HSA), with IL-3, 5µM econazole in Figure 1E
  cell death: cell death is induced
[1]; stimulated with Substance P, IL-3, 5µM econazole
  cell death: cell death is also induced
[2]
  protection by Bcl-2 overexpression from induction of apoptosis: fails to protect
[3]; 8µM econazole plus IL-3 (25% WEHI conditioned media)
  Sub G1 Content (%) 8µM econazole: 20.4%
[3]; 8µM econazole plus SLF (500ng/m.)
  Sub G1 Content (%) 8µM econazole: 66.8%
[4]
  cell death: equivalent levels of death
[5]
  apoptosis: undergo apoptosis
[6]
  sensitivity to cell death: more sensitive
[7]
  cell viability and cell numbers: reduce cell viability and cell numbers

From patent EP0873137B1, “COMPOSITIONS INCLUDING CALCIUM INFLUX BLOCKERS FOR INHIBITING CELL GROWTH” (The Wellesley Hospital Foundation, priority 1996, dated 1997)
